According to patent publication US20030181461A1, “Use of phosphodiesterase antagonists to treat insulin resistance” (priority 2002, published 2003):

How the values were obtained:
[1] = system: insulin resistance in cats; assay: Development of insulin resistance in cats after muscarinic antagonists (RIST); assay type: in vivo
Excerpt: To avoid the complexity of the reaction to hypoglycemia, the rapid insulin sensitivity test (RIST) was employed (Lautt et al., Can. J. Physiol. Pharmacol. 76:1080 (1998)) wherein a euglycemic clamp was used following the administration of insulin and the response was quantitated as the amount of glucose required to be infused over the test period in order to hold arterial blood glucose levels constant.

[2] = system: insulin sensitivity in atropine-treated rats; assay: Rapid insulin sensitivity test (RIST) in rats with atropine-induced 75% HISS-dependent insulin resistance; assay type: in vivo, Male Sprague Dawley rats; details: zaprinast 0.1 mg/kg ipv
Method: Methods for reversal of HISS-dependent insulin resistance using a phosphodiesterase inhibitor in normal rats Male Sprague Dawley rats (250-300 g) were allowed free access to water and normal rodent food for 1 week prior to all studies. Rats were fasted for 8 hours overnight and fed for 2 hours before the start of study. Rats were anesthetized with pentobarbital-sodium (65 mg/ml, ip injection, 0.1 ml/100 g body weight). Animals were placed on a heated thermostatically controlled surgical table to maintain body temperature during surgery and the experimental procedure. An extra-corporeal arterial-venous shunt (the loop) was established between the right femoral artery and right femoral vein, according to a published, standard operating procedure developed in our laboratory (Xie et al., 1996). The loop allows for regular blood sampling of arterial blood throughout the experiment as well as infusion of intravenous drugs and monitoring of arterial blood pressure. […] A laparotomy was performed and an indwelling portal venous catheter was inserted using a portal vein puncture technique. The portal catheter was used to administer the phosphodiesterase inhibitor directly to the liver. […] At this point, blood samples (25 μl) were taken at regular intervals from the loop and analyzed for glucose concentration. […] Glucose levels were monitored every 2 minutes during and after the infusion of insulin. […]

SMILES	Dose required to produce a full (similar degree of) insulin resistance [1]	Reversal of HDIR produced by atropine [2]
COc1ccccc1CNCCCCCCNCCCCCCCCNCCCCCCNCc1ccccc1OC [methoctramine]	10^−6 μmol/kg	
CCCOc1ccccc1-c1nc2nn[nH]c2c(=O)[nH]1 [zaprinast]		able to reverse the HDIR produced by atropine
